Values of other authors as cited in patent US5354868A, “Process for the preparation of (+)-hydantocidin and analogs thereof” (American Cyanamid Company, priority 1993, dated 1994).

Key:
[1] = tested on: annual and perennial weeds; conditions: compared with glyphosphate and bialaphos
mammals = conditions: in vivo

O=C1NC(=O)[C@@]2(N1)O[C@H](CO)[C@@H](O)[C@H]2O [(+)-Hydantocidin, D-ribose-1-spiro-5'-N^1' -β-hydantoin]
herbicidal activity [1]: herbicidal activity at levels comparable to commercial standards such as glyphosphate and bialaphos | toxicity to mammals (mammals): non-toxic to mammals
